Test [1] concerns E. coli MHD52 (deletion of AmiABC). Briefly: Growth of E. coli with inhibited murein septum cleavage (MHD52) after addition of agent. It is filed as cell-based, Escherichia coli. Particulars: LB medium, 37°C, aerobic. The procedure:
(§1) Bacteria were cultivated aerobically at 37° C in LB medium (J.H. Miller, Experiments in Molecular Genetics, Cold Spring Harbor Laboratory, Cold Spring Harbor (1972)). Agar plates contained 1.5 % agar (Gibco BRL, Paisley, Scotland). Growth was monitored by optical density readings at 578 nm in an Eppendorf photometer (Eppendorf, Hamburg, Germany). Antibiotics were used at the following concentrations: 50 (µg/ml ampicillin (amp), 50 (µg/ml kanamycin (kan), 20 (µg/ml chloramphenicol (cm) and 12.5 µg/ml tetracyclin (tet).
(§2) At the indicated time point (arrow) deoxycholate (1 g/l) or crystal violet (1 mg/l), respectively, were added. See the results in Fig. 4 (filled circles: wild type E. coli plus deoxycholate; filled triangles: MHD52 plus crystal violet; filled squares: MHD52 plus deoxycholate). Likewise, the cells were grown in the same manner, but at the indicated time point (arrow) vancomycin (20 µg/ml) was added. See the results in Fig. 5 (open circles: wild type E. coli; filled circles: wild type E. coli plus vancomycin; open squares: MHD52; filled squares: MHD52 plus vancomycin).

The test system of another test is wild-type E. coli MC1061. Briefly: Growth of wild-type E. coli after addition of agent. Particulars: vancomycin 20 µg/ml; LB medium, 37°C, aerobic; wild type (septum cleavage not inhibited). It counts as cell-based, Escherichia coli. The procedure:
as §1, §2

The subject of test [2] is bacterial cells following the inhibition of the cleavage of the bacterial murein septum. Briefly: Sensitivity of bacterial cells to detergents and high molecular weight antibiotics after inhibition of murein septum cleavage. It is filed as cell-based.

Consider `CN(C)c1ccc(C(=C2C=CC(=[N+](C)C)C=C2)c2ccc(N(C)C)cc2)cc1` [crystal violet], for which the “effect on growth (Fig. 4)” value in test [1] (crystal violet 1 mg/l, MHD52) was “insignificant effect”. Take `CN[C@H](CC(C)C)C(=O)N[C@H]1C(=O)N[C@@H](CC(N)=O)C(=O)N[C@H]2C(=O)N[C@H]3C(=O)N[C@H](C(=O)N[C@H](C(=O)O)c4cc(O)cc(O)c4-c4cc3ccc4O)[C@H](O)c3ccc(c(Cl)c3)Oc3cc2cc(c3O[C@@H]2O[C@H](CO)[C@@H](O)[C@H](O)[C@H]2O[C@H]2C[C@](C)(N)[C@H](O)[C@H](C)O2)Oc2ccc(cc2Cl)[C@H]1O` [vancomycin]: the “effect on growth (Fig. 5)” value in test [1] (vancomycin 20 µg/ml, MHD52 (septum cleavage inhibited)) is reported as “growth controlling effect”; with wild-type E. coli MC1061 it was “normal growth”. As for Triton X100, in test [2], the “sensitivity of bacterial cells” value is reported as “significant increase in the sensitivity”. On the same count and under the same terms, with mersacidin the entry was “significant increase in the sensitivity”. Same read-out and setting: with ramoplanin the entry was “significant increase in the sensitivity”.

(Values after patent publication EP1336412A1, “Combinations of an antibiotic and a murein hydrolase inhibitor” (priority 2002, dated 2003).)
